System: heparin in combination with antithrombin of plasma
Test: Influence of heparin in plasma on amidolytic activity, chromogenic thrombin assay
Assay type: biochemical
Conditions: increasing concentrations of heparin in citrated plasma, substrate H-D-Chg-Ala-Arg-pNA
Experimental: The influence of heparin (Sigma, H-3393) on the amidolytic activity of PEG 5 kD-thrombin conjugate in plasma was compared with its influence on the amidolytic activity of unmodified thrombin using the chromogenic assay for quantitative determination of direct thrombin inhibitors (Example 5): 15 μl of a plasma sample (citrated plasma) were added to 50 μl chromogenic substrate (H-D-Chg-Ala-Arg-pNA, JenAffin GmbH, 3 mM in 0.05M Tris/HCl, 0.1M NaCl, pH 8.0 at 37° C.). Chromogenic reaction was started by addition of 100 μl PEG 5 kD-thrombin conjugate or thrombin, respectively. Increase in optical density (release of p-nitroaniline by cleavage of the chromogenic substrate) was recorded at 405 nm using the measurement device TC4+ (TECO GmbH).

| Substance | influence of heparin on amidolytic activity |
| --- | --- |
| PEG 5 kD-thrombin conjugate: bovine factor IIa (thrombin) coupled with methoxy polyethylene glycol (PEG)-5,000 p-nitrophenyl carbonate | does not influence amidolytic activity |
| thrombin: bovine factor IIa (thrombin, EC 3.4.21.5, Kordia), unmodified | inhibit amidolytic activity |
